Reference: patent publication US20230024302A1, “2,3,5-TRISUBSTITUTED PYRAZOLO[1,5-A]PYRIMIDINE COMPOUNDS” (Arcus Biosciences, Inc., priority 2019, published 2023)
Where two headings read alike, the source gives them in different places.

Key:
[1] = biological target: T1, PI3Kγ (Homo sapiens, UniProt P48736); assay: PI3Kγ cellular assay in THP-1 cells (AKT pS473 AlphaLISA); format: cell-based
T1 construct: host or cells: THP-1
In short: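 Serum-starved THP-1 cells (1.8×10^5/well, serum-free DMEM) treated with compounds from 4 nM to 30 μM in 2% DMSO, then stimulated and lysed.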

[2] = biological target: T2, PI3Kγ (p120γ) (Homo sapiens, UniProt P48736); assay: Inhibition of PI3K kinase activity (ADP Glo), PI3Kγ; conditions: read-out: biochemical potency (PI3Kγ IC50)
T2 construct: purchased Promega V1761
In short: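 Recombinant p120γ (8 nM, 2× stock) was preincubated with compound for 1 h at rt in HEPES pH 7.4, NaCl, MgCl2 and 0.05% BSA. Reaction was started with PIP2 (0.1 mg/ml, 2×) and ATP (50 μM, 2×) and ran 60 min at rt. ADP formed was read by ADP-Glo luminescence, and IC50 came from a 4-parameter fit.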

[3] = Table 1, rhMCP-1 stimulated AKT pS473, read-out: cellular potency (PI3Kγ IC50)
[4] = Table 2, rhMCP-1 stimulated AKT pS473, read-out: cellular potency (PI3Kγ IC50)

T2 sequence (P48736 whole entry): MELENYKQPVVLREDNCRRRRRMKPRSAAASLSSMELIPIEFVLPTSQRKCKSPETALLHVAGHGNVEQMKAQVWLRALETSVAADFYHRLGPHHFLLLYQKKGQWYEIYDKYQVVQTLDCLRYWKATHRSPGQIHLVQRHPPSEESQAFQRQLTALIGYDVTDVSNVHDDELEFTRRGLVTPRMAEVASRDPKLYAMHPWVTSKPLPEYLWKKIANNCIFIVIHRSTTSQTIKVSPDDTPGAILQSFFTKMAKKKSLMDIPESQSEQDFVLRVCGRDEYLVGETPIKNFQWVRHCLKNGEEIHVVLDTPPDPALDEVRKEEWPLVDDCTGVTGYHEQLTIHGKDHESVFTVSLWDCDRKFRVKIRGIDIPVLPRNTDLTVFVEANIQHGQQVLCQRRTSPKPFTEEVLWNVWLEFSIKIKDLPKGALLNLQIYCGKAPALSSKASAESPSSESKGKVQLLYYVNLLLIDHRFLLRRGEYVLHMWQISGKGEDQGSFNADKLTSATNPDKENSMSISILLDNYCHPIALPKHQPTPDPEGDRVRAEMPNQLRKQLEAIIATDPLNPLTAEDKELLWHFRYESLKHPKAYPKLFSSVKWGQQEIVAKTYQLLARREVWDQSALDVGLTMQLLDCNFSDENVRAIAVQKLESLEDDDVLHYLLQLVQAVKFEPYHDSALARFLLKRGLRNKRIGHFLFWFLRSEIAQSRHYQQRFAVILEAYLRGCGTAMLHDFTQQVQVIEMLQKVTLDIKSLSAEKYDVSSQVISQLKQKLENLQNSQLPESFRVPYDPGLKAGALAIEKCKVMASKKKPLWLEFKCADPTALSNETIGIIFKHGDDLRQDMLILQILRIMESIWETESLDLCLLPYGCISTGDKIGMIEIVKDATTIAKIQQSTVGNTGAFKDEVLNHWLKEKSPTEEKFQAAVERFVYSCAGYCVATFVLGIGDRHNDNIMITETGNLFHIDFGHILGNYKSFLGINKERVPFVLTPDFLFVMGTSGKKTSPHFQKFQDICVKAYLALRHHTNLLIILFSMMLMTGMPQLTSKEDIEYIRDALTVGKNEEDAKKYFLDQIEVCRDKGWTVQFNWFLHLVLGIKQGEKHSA
T1 sequence (P48736 whole entry): as above

C[C@@H](C1CC1)N1Cc2cc(-c3ccn4nc(N)c(C(=O)NC5CC5)c4n3)cc(OC3CC(F)(F)C3)c2C1=O [Example 157, 2-Amino-N-cyclopropyl-5-{2-[(1S)-1-cyclopropylethyl]-7-(3,3-difluorocyclobutoxy)-1-oxo-2,3-dihydro-1H-isoindol-5-yl}pyrazolo[1,5-a]pyrimidine-3-carboxamide] was tested, and the IC50 [1, 3] was under 100 nM and the IC50 ([2]; Table 1, p120γ) was under 100 nM.

Molecule C[C@@H](C1CC1)N1Cc2cc(-c3ccn4nc(N)c(C(=O)NC5CC5)c4n3)cc(OC(F)F)c2C1=O [Example 158, 2-Amino-N-cyclopropyl-5-{2-[(1S)-1-cyclopropylethyl]-7-(difluoromethoxy)-1-oxo-2,3-dihydro-1H-isoindol-5-yl}pyrazolo[1,5-a]pyrimidine-3-carboxamide] has an IC50 [1, 3] of under 100 nM and an IC50 ([2]; Table 1, p120γ) of under 100 nM.

C[C@@H](C1CC1)N1Cc2cc(-c3ccn4nc(N)c(C(=O)N[C@@H](CO)C5CC5)c4n3)cc(OC(F)F)c2C1=O [Example 159, 2-Amino-N-[(1R)-1-cyclopropyl-2-hydroxyethyl]-5-{2-[(1S)-1-cyclopropylethyl]-7-(difluoromethoxy)-1-oxo-2,3-dihydro-1H-isoindol-5-yl}pyrazolo[1,5-a]pyrimidine-3-carboxamide] gave an IC50 [1, 3] of under 100 nM and an IC50 ([2]; Table 1, p120γ) of under 100 nM.

Work on C[C@@H](C1CC1)N1Cc2cc(-c3ccn4nc(N)c(C(=O)N[C@H]5CC[C@@](C)(O)CC5)c4n3)cc(OC(F)F)c2C1=O [Example 160, 2-Amino-5-{2-[(1S)-1-cyclopropylethyl]-7-(difluoromethoxy)-1-oxo-2,3-dihydro-1H-isoindol-5-yl}-N-[cis-4-hydroxy-4-methylcyclohexyl]pyrazolo[1,5-a]pyrimidine-3-carboxamide] yielded an IC50 [1, 3] of under 100 nM and an IC50 ([2]; Table 1, p120γ) of under 100 nM.

C[C@@H](C1CC1)N1Cc2cc(-c3ccn4nc(N)c(C(=O)Nc5cccnc5)c4n3)cc(OC(F)F)c2C1=O [Example 161, 2-Amino-5-{2-[(1S)-1-cyclopropylethyl]-7-(difluoromethoxy)-1-oxo-2,3-dihydro-1H-isoindol-5-yl}-N-(pyridin-3-yl)pyrazolo[1,5-a]pyrimidine-3-carboxamide] was tested, and the IC50 [1, 3] was under 100 nM and the IC50 ([2]; Table 1, p120γ) was under 100 nM.

For C[C@@H](C1CC1)N1Cc2cc(-c3ccn4nc(N)c(C(=O)NC5CC5)c4n3)cc(Cl)c2C1=O [Example 162, 2-Amino-5-{7-chloro-2-[(1S)-1-cyclopropylethyl]-1-oxo-2,3-dihydro-1H-isoindol-5-yl}-N-cyclopropylpyrazolo[1,5-a]pyrimidine-3-carboxamide], the IC50 [1, 3] was under 100 nM and the IC50 ([2]; Table 1, p120γ) was under 100 nM.

With C[C@H](CO)NC(=O)c1c(N)nn2ccc(-c3cc(Cl)c4c(c3)CN([C@@H](C)C3CC3)C4=O)nc12 [Example 163, 2-Amino-5-{7-chloro-2-[(1S)-1-cyclopropylethyl]-1-oxo-2,3-dihydro-1H-isoindol-5-yl}-N-[(2R)-1-hydroxypropan-2-yl]pyrazolo[1,5-a]pyrimidine-3-carboxamide] the IC50 [1, 3] was under 100 nM and the IC50 ([2]; Table 1, p120γ) was under 100 nM.

For CC[C@H](N1Cc2cc(-c3ccn4nc(N)c(C(=O)N[C@H](C)CO)c4n3)cc(Cl)c2C1=O)C(F)(F)F [Example 164, 2-Amino-5-{7-chloro-1-oxo-2-[(2S)-1,1,1-trifluorobutan-2-yl]-2,3-dihydro-1H-isoindol-5-yl}-N-[(2R)-1-hydroxypropan-2-yl]pyrazolo[1,5-a]pyrimidine-3-carboxamide], the IC50 [1, 3] was under 100 nM and the IC50 ([2]; Table 1, p120γ) was under 100 nM.

C[C@@H](C1CC1)N1Cc2cc(-c3ccn4nc(N)c(C(=O)NC5CC5)c4n3)cc(C3CC3)c2C1=O [Example 165, 2-Amino-N-cyclopropyl-5-{7-cyclopropyl-2-[(1S)-1-cyclopropylethyl]-1-oxo-2,3-dihydro-1H-isoindol-5-yl}pyrazolo[1,5-a]pyrimidine-3-carboxamide] showed an IC50 [1, 3] of under 100 nM and an IC50 ([2]; Table 1, p120γ) of under 100 nM.

C[C@H](CO)NC(=O)c1c(N)nn2ccc(-c3cc4c(c(C5CC5)c3)C(=O)N([C@@H](C)C3CC3)C4)nc12 [Example 166, 2-Amino-5-{7-cyclopropyl-2-[(1S)-1-cyclopropylethyl]-1-oxo-2,3-dihydro-1H-isoindol-5-yl}-N-[(2R)-1-hydroxypropan-2-yl]pyrazolo[1,5-a]pyrimidine-3-carboxamide] gave an IC50 [1, 3] of under 100 nM and an IC50 ([2]; Table 1, p120γ) of under 100 nM.

C[C@@H](C1CC1)N1Cc2cc(-c3ccn4nc(N)c(C(=O)N[C@@H](CO)C5CC5)c4n3)cc(C3CC3)c2C1=O [Example 167, 2-Amino-5-{7-cyclopropyl-2-[(1S)-1-cyclopropylethyl]-1-oxo-2,3-dihydro-1H-isoindol-5-yl}-N-[(1R)-1-cyclopropyl-2-hydroxyethyl]pyrazolo[1,5-a]pyrimidine-3-carboxamide] was tested, and the IC50 [1, 3] was under 100 nM and the IC50 ([2]; Table 1, p120γ) was under 100 nM.

Work on CCc1cc(-c2ccn3nc(N)c(C(=O)N[C@@H](CO)C4CC4)c3n2)cc2c1C(=O)N([C@@H](C)C1CC1)C2 [Example 168, 2-Amino-N-[(1R)-1-cyclopropyl-2-hydroxyethyl]-5-{2-[(1S)-1-cyclopropylethyl]-7-ethyl-1-oxo-2,3-dihydro-1H-isoindol-5-yl}pyrazolo[1,5-a]pyrimidine-3-carboxamide] yielded an IC50 [1, 3] of under 100 nM and an IC50 ([2]; Table 1, p120γ) of under 100 nM.

CC(C)c1cc(-c2ccn3nc(N)c(C(=O)NC4CC4)c3n2)cc2c1C(=O)N([C@@H](C)C1CC1)C2 [Example 169, 2-Amino-N-cyclopropyl-5-{2-[(1S)-1-cyclopropylethyl]-1-oxo-7-(propan-2-yl)-2,3-dihydro-1H-isoindol-5-yl}pyrazolo[1,5-a]pyrimidine-3-carboxamide] gave an IC50 [1, 3] of under 100 nM and an IC50 ([2]; Table 1, p120γ) of under 100 nM.

Work on C[C@@H](C1CC1)N1Cc2cc(-c3ccn4nc(N)c(C(=O)NC5CC5)c4n3)cc(C(C)(C)O)c2C1=O [Example 170, 2-Amino-N-cyclopropyl-5-{2-[(1S)-1-cyclopropylethyl]-7-(2-hydroxypropan-2-yl)-1-oxo-2,3-dihydro-1H-isoindol-5-yl}pyrazolo[1,5-a]pyrimidine-3-carboxamide] yielded an IC50 [1, 3] of under 100 nM and an IC50 ([2]; Table 1, p120γ) of under 100 nM.

Molecule C[C@@H](C1CC1)N1Cc2cc(-c3ccn4nc(N)c(C(=O)N[C@H]5CC[C@@](C)(O)CC5)c4n3)cc(C(C)(C)O)c2C1=O [Example 171, 2-Amino-5-{2-[(1S)-1-cyclopropylethyl]-7-(2-hydroxypropan-2-yl)-1-oxo-2,3-dihydro-1H-isoindol-5-yl}-N-[cis-4-hydroxy-4-methylcyclohexyl]pyrazolo[1,5-a]pyrimidine-3-carboxamide] has an IC50 [1, 3] of under 100 nM and an IC50 ([2]; Table 1, p120γ) of under 100 nM.

For Cc1cc(-c2ccn3nc(N)c(C(=O)N[C@H]4CC[C@H](O)CC4)c3n2)cc2c1C(=O)N([C@@H](C)C1CC1)C2 [Example 172], the IC50 [1, 4] was 100 to 1000 nM and the IC50 ([2]; Table 2, p120γ) was under 100 nM.

Cc1cc(-c2ccn3nc(N)c(C(=O)N[C@@H](C)c4ccncc4)c3n2)cc2c1C(=O)N([C@@H](C)C1CC1)C2 [Example 173] showed an IC50 [1, 4] of 100 to 1000 nM and an IC50 ([2]; Table 2, p120γ) of under 100 nM.

For Cc1cc(-c2ccn3nc(N)c(C(=O)N4CCC4CO)c3n2)cc2c1C(=O)N(C(C)C1CC1)C2 (stereo not drawn) [Example 174], the IC50 [1, 4] was 100 to 1000 nM and the IC50 ([2]; Table 2, p120γ) was under 100 nM.

Cc1cc(-c2ccn3nc(N)c(C(=O)N[C@H](C)c4cnn(C)c4)c3n2)cc2c1C(=O)N([C@@H](C)C1CC1)C2 [Example 175] gave an IC50 [1, 4] of 100 to 1000 nM and an IC50 ([2]; Table 2, p120γ) of under 100 nM.

Work on Cc1cc(-c2ccn3nc(N)c(C(=O)N[C@@H]4CCOC4)c3n2)cc2c1C(=O)N([C@@H](C)C1CC1)C2 [Example 176] yielded an IC50 [1, 4] of 100 to 1000 nM and an IC50 ([2]; Table 2, p120γ) of under 100 nM.

Work on Cc1cc(-c2ccn3nc(N)c(C(=O)N[C@H]4CCOC4)c3n2)cc2c1C(=O)N([C@@H](C)C1CC1)C2 [Example 177] yielded an IC50 [1, 4] of 100 to 1000 nM and an IC50 ([2]; Table 2, p120γ) of under 100 nM.

Cc1cc(-c2ccn3nc(N)c(C(=O)N[C@@H](C)c4nccs4)c3n2)cc2c1C(=O)N([C@@H](C)C1CC1)C2 [Example 178] showed an IC50 [1, 4] of 100 to 1000 nM and an IC50 ([2]; Table 2, p120γ) of under 100 nM.

In the case of Cc1cc(-c2ccn3nc(N)c(C(=O)NC4CCNCC4)c3n2)cc2c1C(=O)N([C@@H](C)C1CC1)C2 [Example 179], the IC50 [1, 4] is reported as 100 to 1000 nM and the IC50 ([2]; Table 2, p120γ) is reported as under 100 nM.

For Cc1cc(-c2ccn3nc(N)c(C(=O)NC4COC4)c3n2)cc2c1C(=O)N([C@@H](C)C1CC1)C2 [Example 180], the IC50 [1, 4] was 100 to 1000 nM and the IC50 ([2]; Table 2, p120γ) was under 100 nM.

Work on Cc1cc(-c2ccn3nc(N)c(C(=O)NC4CCOCC4)c3n2)cc2c1C(=O)N([C@@H](C)C1CC1)C2 [Example 181] yielded an IC50 [1, 4] of 100 to 1000 nM and an IC50 ([2]; Table 2, p120γ) of under 100 nM.

CO[C@H]1C[C@H](NC(=O)c2c(N)nn3ccc(-c4cc(C)c5c(c4)CN([C@@H](C)C4CC4)C5=O)nc23)C1 [Example 182] gave an IC50 [1, 4] of 100 to 1000 nM and an IC50 ([2]; Table 2, p120γ) of under 100 nM.

CC[C@H](CO)NC(=O)c1c(N)nn2ccc(-c3cc(C)c4c(c3)CN([C@@H](C)C3CC3)C4=O)nc12 [Example 183] gave an IC50 [1, 4] of 100 to 1000 nM and an IC50 ([2]; Table 2, p120γ) of under 100 nM.

Molecule Cc1cc(-c2ccn3nc(N)c(C(=O)N[C@H]4CC[C@H](N)CC4)c3n2)cc2c1C(=O)N([C@@H](C)C1CC1)C2 [Example 184] has an IC50 [1, 4] of 100 to 1000 nM and an IC50 ([2]; Table 2, p120γ) of under 100 nM.

Cc1cc(-c2ccn3nc(N)c(C(=O)N[C@H]4C[C@H](N)C4)c3n2)cc2c1C(=O)N([C@@H](C)C1CC1)C2 [Example 185] was tested, and the IC50 [1, 4] was 100 to 1000 nM and the IC50 ([2]; Table 2, p120γ) was under 100 nM.

In the case of Cc1cc(-c2ccn3nc(N)c(C(=O)NCCO)c3n2)cc2c1C(=O)N([C@@H](C)C1CC1)C2 [Example 186], the IC50 [1, 4] is reported as 100 to 1000 nM and the IC50 ([2]; Table 2, p120γ) is reported as under 100 nM.

Cc1cc(-c2ccn3nc(N)c(C(=O)N[C@H]4CC[C@H](C(=O)O)CC4)c3n2)cc2c1C(=O)N([C@@H](C)C1CC1)C2 [Example 187] gave an IC50 [1, 4] of 100 to 1000 nM and an IC50 ([2]; Table 2, p120γ) of under 100 nM.

Cc1cc(-c2ccn3nc(N)c(C(=O)NCC4(O)CC4)c3n2)cc2c1C(=O)N([C@@H](C)C1CC1)C2 [Example 188] showed an IC50 [1, 4] of 100 to 1000 nM and an IC50 ([2]; Table 2, p120γ) of under 100 nM.

Work on Cc1cc(-c2ccn3nc(N)c(C(=O)NC4CCC4)c3n2)cc2c1C(=O)N([C@@H](C)C1CC1)C2 [Example 189] yielded an IC50 [1, 4] of 100 to 1000 nM and an IC50 ([2]; Table 2, p120γ) of under 100 nM.
